Reference: patent US20260297129A1, “PEPTIDES AS SELECTIVE IL-23 RECEPTOR INHIBITORS” (SANOFI, priority 2023, published 2026)
≈ marks a conversion by molar mass, not a printed value. Like-named read-outs stand apart in the source and are kept apart here. Numbered stars: 1 amine (or outer) side, 2 acyl side, 3 side chain; on linkers, the order of the positions; unused ones are H or OH. Bridge positions count the residues as written; N and C are the ends. Square brackets hold non-standard residues; d marks the D form. Peptide text beside a SMILES is read from it. * marks the point of attachment. Lys(Me,(CH2)4NMe(CH2)5CO) = CN(CCCCCC(=O)[*:3])CCCCN(C)CCCC[C@H](N[*:1])C(=O)[*:2]; Trp(7-Me) = Cc1cccc2c(C[C@H](N)C(=O)O)c[nH]c12; Trp(1-Me) = Cn1cc(C[C@H](N)C(=O)O)c2ccccc21; NH(2-(3-pyridyl)ethyl) = c1cncc(CCN*)c1; αMeLys(Me2) = CN(C)CCCC[C@](C)(N)C(=O)O; 2Nal = N[C@@H](Cc1ccc2ccccc2c1)C(=O)O; 3Pal = N[C@@H](Cc1cccnc1)C(=O)O; Aun = NCCCCCCCCCCC(=O)O; Thp = NC1(C(=O)O)CCOCC1; Me2NCH2CH2 = CN(C)CC*; Aib = CC(C)(N)C(=O)O; Sar = CNCC(=O)O

Assays:
[1] = Solubility of peptide compounds in buffer formulations (Table 5); type: physicochemical; conditions: target 1 mg/ml
Protocol: Prior to the solubility measurement of a peptide batch, its purity was determined through UHPLC/MS method A.
For solubility testing the target concentration was 1 mg pure compound/ml. Therefore, solutions from solid samples were prepared in a buffer system at a concentration of 1 mg/mL compound. The solid samples were obtained by drying down aliquots of a freshly prepared dimethyl sulfoxide stock solution using a THERMO SPEEDVAC vacuum centrifuge. The dry down time was 3 hours.
The following buffer systems were applied: • Solubility buffer system A) 50 mM HCl pH 1.2 • Solubility buffer system B) 50 mM phosphate buffer pH 6.5 • Solubility buffer system C) 50 mM phosphate buffer pH 7.4 • UHPLC-UV was performed using analytical method A after 2 hours of gentle agitation from the filtered (0.45 μm filter plates) solutions, which were obtained by 10 mins of centrifugation forced filtration at 1500 RCF (relative centrifugal acceleration).
The solubility was determined by the comparison of the UV peak area of 2 μL-injections of a buffered sample diluted 1:10 with a standard curve of a dimethyl sulfoxide reference sample of known concentration. The different extinction coefficients were taken into account for the calculation.

[2] = Protease stability in simulated gastric fluids (FaSSGF) (Table 7); type: in vitro ADME; conditions: fassgf with pepsin, 60 min, 37° C., read-out: Remaining percentage of peptide compound, FaSSGF 60 (min)
Protocol: (§1) Studies were carried out in simulated intestinal fluid (SIF) and simulated gastric fluid (SGF) to evaluate gastric stability of the peptide compounds disclosed herein.
For clarification, the term “Pepsin-SGF” refers to a solution of simulated gastric fluid containing pepsin whereas “SGF media” refers to a solution of simulated gastric fluid without pepsin. Pepsin-SGF was prepared by dissolving 320 mg Pepsin (Merck Millipore) in 100 mL SGF media concentrate (PROSENSE).
(§2) Peptide compounds were first dissolved at 1 mM stock concentration in 0.01 HCl (+/−10% of DMSO) and were than diluted further with water to a stock concentration of 20 μM. Final peptide concentration in the incubation was 1 μM.
(§3) To 76 μL of the Pepsin-SGF buffer, 4 μL of the 20 μM peptide stock solution was added and incubated at 37° C. At each timepoint (0, 60, 120 and 240 minutes) the reaction was quenched with addition of 80 μL Ethanol (0,1% HCOOH). The samples were centrifuged for 20 minutes and an aliquot of the supernatant 100 μL were transferred to a LoBind-MTP plate and analyzed by LCMS/MS. The peak area response was calculated at each time point for each test compound. As internal reference, the peak area response of the same test compound at T0 was calculated. The percentage remaining at each timepoint was calculated based on the peak area response ratio of the test compound at T0. Time 0 was set to 100%, and all later timepoints were calculated relative to time 0.
as §3, with “(0.1%” for “(0,1%”

[3] = Protease stability in simulated intestinal fluids (FaSSIF) (Table 7); type: in vitro ADME; conditions: fassif with pancreatin, 37° C.
Protocol: as §1
Similarly, the term “Pancreatin-SIF” refers to a solution of simulated intestinal fluid containing pancreatin whereas “SIF-media” refers to a solution of simulated intestinal fluid without pancreatin. Pancreatin-SIF was prepared by dissolving 1 mg Pancreatin (MP Biomedicals) in 10 mL SIF media concentrate (PROSENSE).
as §2
as §3, with “(0.1%” for “(0,1%”

[4] = system: IL-23 induced STAT3 signaling (IL-23 receptor) in HEK-Blue IL-23 cells; experiment: Inhibition of IL-23 induced STAT3 signaling in HEK-Blue IL-23 cells, SEAP reporter (Table 9); type: cell-based; conditions: human IL23 0.25 ng/ml, overnight, read-out: Inhibition of IL-23 induced pSTAT3 (IC50 nM)
From the text: HEK-Blue™ IL-23 cells (INVIVOGEN) are designed for the detection of bioactive human (hIL-23) and murine IL-23 (mIL-23) by monitoring the activation of the STAT3 pathway. Binding of IL-23 to its receptor on the surface of HEK-Blue™ IL-23 cells triggers a signaling cascade leading to the activation of STAT3 and the subsequent production of secreted embryonic alkaline phosphatase (SEAP). This can be readily assessed using QUANTI-Blue™ Solution, a SEAP detection reagent.
HEK-Blue™ IL-23 cells were cultured as described by INVIVOGEN.
On the first day of assay 10 μL of the HEK-BLUE IL23 cell suspension (final concentration: 10,000 cells/well) and 10 μl of serially diluted peptides solutions were dispensed into a 384-well assay plate. After pre-incubation of the reaction mixtures at 37° C./5% CO2/95% humidity for 60 minutes, 10 μl of the humanIL23 cytokine (final concentration: 0.25 ng/ml) was added to each well for the STAT3 signaling activation. The plate was incubated overnight at 37° C./5% CO2/95% humidity.
On the second day 20 μl per well of QUANTI-BLUE detection solution (prepared according to the manufacture instruction) was dispensed into a new 384-well plate and followed by the transfer of 5 μl supernatant of the overnight incubated cell/sample mixtures. After incubation of 45 min at room temperature signals were measured with PHERASTAR (BMG) at OD 620-655 nm.
Dose response data were fitted with XLfit.

[5] = Buffer pH 1.1 (head; method: 50 mM HCl pH 1.2), 2 h agitation, read-out: Solubility, Buffer pH 1.1
[6] = aqueous buffer, 50 mM phosphate buffer pH 6.5, 2 h agitation, read-out: Solubility, Buffer pH 6.5
[7] = aqueous buffer, 50 mM phosphate buffer pH 7.4, 2 h agitation, read-out: Solubility, Buffer pH 7.4

solubility at 2 h [1, 5] [µg/mL] | solubility at 2 h [1, 6] [µg/mL] | solubility at 2 h [1, 7] [µg/mL] | remaining at 1 h, 1 µM [2] [%] | remaining at 1 h, 1 µM ([3]; 60 min, read-out: Remaining percentage of peptide compound, FaSSIF 60 (min)) [%] | remaining at 2 h, 1 µM ([3]; 120 min, read-out: Remaining percentage of peptide compound, FaSSIF 120 (min)) [%] | remaining at 4 h, 1 µM ([3]; 240 min, read-out: Remaining percentage of peptide compound, FaSSIF 240 (min)) [%] | Compound | IC50 [4] [nM]
≥ 1150 | ≥ 1170 | ≥ 1010 | 91 | 97 | 100 | 101 | CC(=O)NCCCC[C@@H]1NC(=O)[C@H](Cc2c[nH]c3c(C)cccc23)NC(=O)CCCCCCCCCCNC(=O)CC[C@@H](C(=O)N[C@@H](CC(N)=O)C(=O)N[C@@H](Cc2cccnc2)C(=O)N(C)CC(N)=O)NC(=O)[C@](C)(CCCCN(C)C)NC(=O)[C@H](Cc2ccc3ccccc3c2)NC(=O)[C@H](Cc2ccc(OCCN(C)C)cc2)NC(=O)C2(CCOCC2)NC1=O [compound 21] ([Aun][Trp(7-Me)]K(Ac)[Thp]Y(Me2NCH2CH2)[2Nal][αMeLys(Me2)]EN[3Pal][Sar]-NH2; lactam N-8) | 0.27
≥ 1020 | ≥ 920 | 330 (≈ 224 µM) |  |  |  |  | CN(C)CCOc1ccc(C[C@@H]2NC(=O)C3(CCOCC3)NC(=O)[C@H](CCC(N)=O)NC(=O)[C@H](Cc3cn(C)c4ccccc34)NC(=O)CCCCCN(C)CCCCN(C)CCCC[C@@H](C(=O)NCC(=O)NCCc3cccnc3)NC(=O)C(C)(C)NC(=O)[C@H](Cc3ccc4ccccc4c3)NC2=O)cc1 [compound 22] ([Trp(1-Me)]Q[Thp]Y(Me2NCH2CH2)[2Nal][Aib][Lys(Me,(CH2)4NMe(CH2)5CO)]G-{NH(2-(3-pyridyl)ethyl)}; lactam N-7) | 24.8
≥ 970 | ≥ 890 | ≥ 880 |  |  |  |  | CC(=O)NCCCC[C@@H]1NC(=O)[C@H](Cc2cn(C)c3ccccc23)NC(=O)CCCCCN(C)CCCCN(C)CCCC[C@@H](C(=O)NCC(=O)NCCc2cccnc2)NC(=O)C(C)(C)NC(=O)[C@H](Cc2ccc3ccccc3c2)NC(=O)[C@H](Cc2ccc(OCCN(C)C)cc2)NC(=O)C2(CCOCC2)NC1=O [compound 23] ([Trp(1-Me)]K(Ac)[Thp]Y(Me2NCH2CH2)[2Nal][Aib][Lys(Me,(CH2)4NMe(CH2)5CO)]G-{NH(2-(3-pyridyl)ethyl)}; lactam N-7) | 39.2
